Reference: ChEMBL document CHEMBL1759930, “Structural requirements of (E)-6-benzylidene-4a-methyl-4,4a,5,6,7,8-hexahydronaphthalen-2(3H)-one derivatives as novel melanogenesis inhibitors” (Bioorg Med Chem Lett, 2011)

Legend:
B16 [1] = assay: Inhibition of alpha-MSH -stimulated melanogenesis in mouse B16 cells assessed as melanin release at 10 uM after 3 days; format: functional; details: B16, 72 h
B16 [2] = assay: Inhibition of alpha-MSH -stimulated melanogenesis in mouse B16 cells assessed as melanin release after 3 days; format: functional, cell-based; details: B16, 72 h

Row | Compound | IC50 (B16 [2]) | inhibition at 10 µM (B16 [1])
1 | CC12CCC3(C=C1CC/C(=C\c1ccc(Cl)c(Cl)c1)C2=O)SCCS3 (stereo not given) | 25.5 µM | 62%
2 | COc1ccc(/C=C2\CCC3=CC4(CCC3(C)C2=O)SCCS4)cc1OC (stereo not given) | > 30 µM | 43%
3 | COCOc1ccc(/C=C2\CCC3=CC4(CCC3(C)C2=O)SCCS4)cc1 (stereo not given) | 6 µM | 92%
4 | CC12CCC3(C=C1CC/C(=C\C=C\c1ccccc1)C2=O)SCCS3 (stereo not given) | 16.5 µM | 75%
5 | CC12CCC3(C=C1CCCC2=O)SCCS3 (stereo not given) | > 30 µM | < 10%
6 | CCc1ccc(/C=C2\CCC3=CC4(CCC3(C)C2=O)SCCS4)cc1 (stereo not given) | 18.5 µM | 80%
7 | COc1ccc(/C=C2\CCC3=CC4(CCC3(C)C2=O)SCCS4)cc1 (stereo not given) | 3.5 µM | > 100%
8 | CC12CCC3(C=C1CC/C(=C\c1ccc(C(C)(C)C)cc1)C2=O)SCCS3 (stereo not given) | 13.5 µM | 83%
9 | CC12CCC3(C=C1CC/C(=C\c1ccc(OCc4ccccc4)cc1)C2=O)SCCS3 (stereo not given) | 13.5 µM | 80%
10 | CC1CCC/C(=C\c2ccc(Cl)cc2)C1=O (stereo not given) | > 30 µM | < 10%
11 | COc1ccc(/C=C2\CCC3=CC(=O)CCC3(C)C2=O)cc1 (stereo not given) | 6 µM | 72%
12 | Cc1ccc(/C=C2\CCC3=CC(=O)CCC3(C)C2=O)cc1 (stereo not given) | 23 µM | 60%
13 | CC12CCC3(C=C1CC/C(=C\c1ccc(Cl)cc1)C2=O)SCCS3 (stereo not given) | > 30 µM | 35%

More lines, main results first:

Row | IC50 (B16 [2]) | Compound | inhibition at 10 µM (B16 [1])
14 | 7.6 µM | CN(C)c1ccc(/C=C2\CCC3=CC4(CCC3(C)C2=O)SCCS4)cc1 (stereo not given) | 65%
15 | > 30 µM | CC1CCC/C(=C\c2ccccc2)C1=O (stereo not given) | < 10%
16 | 17.1 µM | Cc1ccc(/C=C2\CCC3=CC4(CCC3(C)C2=O)SCCS4)cc1 (stereo not given) | > 100%
17 | 4.3 µM | CC12CCC3(C=C1CC/C(=C\c1ccc(O)cc1)C2=O)SCCS3 (stereo not given) | 96%
18 | > 30 µM | COc1ccc(/C=C2\CCCC(C)C2=O)cc1 (stereo not given) | < 10%
19 | 10.5 µM | CC12CCC3(C=C1CC/C(=C\c1ccccc1)C2=O)SCCS3 (stereo not given) | 85%
20 | > 30 µM | CC1CCC/C(=C\c2ccc(O)cc2)C1=O (stereo not given) | < 10%
21 | 11.5 µM | CC12CCC3(C=C1CC/C(=C\c1cccc4ccccc14)C2=O)SCCS3 (stereo not given) | 85%
22 | 120 µM | OC[C@H]1O[C@@H](Oc2ccc(O)cc2)[C@H](O)[C@@H](O)[C@@H]1O [ARBUTIN] | –
23 | > 30 µM | Cc1ccc(/C=C2\CCCC(C)C2=O)cc1 (stereo not given) | < 10%
